The results in this text go back to patent US20220002307A1, “FGFR4 INHIBITOR AND USE THEREOF” (BETTA PHARMACEUTICALS CO., LTD, priority 2018, published 2022).

One data set has as its target FGFR1 (Homo sapiens, UniProt P11362). Put plainly: Kinase assay (mobility shift assay), FGFR1. The format is biochemical. Conditions: compound and enzyme incubated for 60 mins. The procedure:
[The source words this procedure for another target and reports this target under the same test.] (§1) The effect of the compounds of the present invention on the activity of tyrosine kinase FGFR4 was evaluated with in vitro kinase detection experiment. The mobility shift assay was used in the experiment, and a fluorescently labeled polypeptide was used as the substrate, the substrate was transformed into a product under the action of the enzyme in the reaction system, and its charge has also changed accordingly. This method can use the difference between the charge of the substrate and the product to separate them, and then detect them separately.
(§2) DMSO solution of compound (300 μM) was diluted to a 100-fold final concentration of DMSO solution in a 384-well plate, 3-fold dilution, 250 nL of the compound with 100-fold final concentration was transferred to the target plate OptiPlate-384F by a dispenser Echo 550. The final concentration of the compound were 3000 nM, 1000 nM, 333.3 nM, 111.1 nM, 37.04 nM, 12.35 nM, 4.115 nM, 1.372 nM, 0.4572 nM, 0.1524 nM, the compound and the enzyme were incubated for 60 mins,
(§3) Prepared 1× kinase buffer, used the 1× kinase buffer to prepare 2.5 fold final concentration of kinase solution, 10 μL of 2.5 fold final concentration kinase solution was added to the compound well and the positive control well respectively, and 10 μL of 1× kinase buffer was added to the negative control well. After centrifugation, the reaction plate was shaken and mixed and incubated at room temperature for 60 mins, a mixture of 25/15 fold final concentration of adenosine triphosphate (ATP) and kinase substrate 22 was prepared with 1× kinase buffer. 15 μL of 25/15 fold final concentration of ATP and substrate mixed solution was added to start the reaction, 384-well plate was centrifuged, mixed, and then incubated at room temperature for 30 minutes, 30 μL of the stop detection solution was added to stop the kinase reaction, and the conversion rate was readed with Caliper EZ Reader after centrifugation and mixing;
(§4) wherein: Conversion %_sample was the conversion rate of the sample; Conversion %_min was the average value of the negative control well, which represent the conversion rate of the well without enzyme activity, Conversion %_max was the average value of the positive control well, which represent the conversion rate of the well without compound inhibition.
(§5) Take the log value of the concentration as the X axis, the percentage inhibition rate as the Y axis, and use GraphPad Prism's log(inhibitor) vs. response-Variable slope (four parameters) of the analysis software to fit the dose-response curve to obtain the IC50 value of each compound on the enzyme. The formula is as follows: Y=Bottom+(Top−Bottom)/(1+10^((Log IC50−X)*HillSlope)).

The test system of data set [1] is human liver cancer cells Hep3B cells. The data set is described as follows: Cell proliferation assay (CellTiter-Glo). It is filed as cell-based. Conditions: 96 hrs incubation, CTG detection, read-out: IC50(nM) of the compound on Hep3B cells. The text has this:
In vitro cell assay was used to measure the effects of the compound of the present invention on the proliferation of human liver cancer cells Hep3B cells. The CELL TITER-GLO (CTG) luminescent was used as detection method in the assay, which can detect the number of living cells by quantitatively determining ATP. Because ATP participates in a variety of enzymatic reactions in organisms, it is an indicator of the metabolism of living cells, and its content directly reflects the number and cell state of cells, during the experiment, add CellTiter-Glo™ reagent to the cell culture medium to measure the luminescence, the luminescence value is directly proportional to the amount of ATP, and ATP is positively related to the number of living cells, so cell viability can be inspected by detecting the ATP content.
Take a bottle of Hep3B cells in logarithmic growth phase, the cells were counted after digestion and resuspension, and then were adjusted the cell density and seeded at 180 μL per well (1500 cells/well) into a 96-well plate, the plate was incubated for 24 hrs in 37° C. 5% CO2 incubator;
The 600 μM test substance dissolved in DMSO was diluted with DMSO in a 1:3 ratio to a 200-fold final concentration solution, then the cell culture medium was diluted 20 fold (10×), and 20 μL of the compound solution was added to the 96 wells containing cells in the plate, the final concentration of the compound from high to low was 3000 nM, 1000 nM, 333.3 nM, 111.1 nM, 37.04 nM, 12.35 nM, 4.115 nM, 1.372 nM, 0.4572 nM, and the well plate was placed in a 37° C. 5% CO2 incubator for 96 hrs;
After 96 hrs of incubation, 60 μL of CellTiter-Glo® Luminescent Cell Viability Assay solution was added to each well, gently shaked for 2 mins, continued incubating for 10 mins at room temperature, and the luminescence value of each well on the multifunctional microplate reader was readed.
Calculated the inhibition rate base on the luminous value,
Inhibition rate %=(blank group value−administration group value)/(blank group value−apoptosis group value)*100
The log value of the concentration was used as the X axis, and the percentage inhibition rate was used as the Y axis. Log (inhibitor) vs. response-Variable slope (four parameters) of GraphPad Prism's was used to fit the dose-response curve, and the IC50 of the compound to inhibit cell proliferation was calculated.

The target in the next data set is tyrosine kinase FGFR4 (Homo sapiens, UniProt P22455). The data set is described as follows: Kinase assay (mobility shift assay), FGFR4. It is filed as biochemical. As to conditions: compound and enzyme incubated for 60 mins. The procedure: as §1, §2, §3, §4, §5
Data set [2] deals with human hepatocarcinoma cells Hep3B. The data set is described as follows: Xenograft tumor model. Conditions: for inhibitory rate on tumor volume growth of Hep3B (TGI): BID×14; for inhibitory rate of tumor weight growth (TGI): BID×14, tumor weight after the last dose; for body weight (routine determination of toxicity): during the entire experiment, at the treatment doses. The format is in vivo. As for the experimental part:
BALB/c nu/nu female mice were inoculated subcutaneously in the right anterior scapula of 5×10^6 human hepatocarcinoma cells Hep3B, and the volume ratio of cell suspension to matrigel was 1:1 (0.2/mL/mouse). The mice were grouped according to tumor size until the average tumor volume was 158 mm^3. The treatment group was given a test compound solution prepared with an appropriate solvent, and the solvent control group was given a blank solvent. During the treatment, the tumor volume was measured twice a week, and the tumor weight was measured after the last dose to determine the compound activity. The tumor growth inhibition rate (%, TGI) was calculated by comparing the tumor volume and weight of the treatment group and the solvent control group. Body weight measurement, as a routine determination of toxicity, has the same frequency as the tumor volume measurement.

Each structure is given as a SMILES string. Some results are limits rather than exact numbers.

Chain of tyrosine kinase FGFR4 (P22455 22-802): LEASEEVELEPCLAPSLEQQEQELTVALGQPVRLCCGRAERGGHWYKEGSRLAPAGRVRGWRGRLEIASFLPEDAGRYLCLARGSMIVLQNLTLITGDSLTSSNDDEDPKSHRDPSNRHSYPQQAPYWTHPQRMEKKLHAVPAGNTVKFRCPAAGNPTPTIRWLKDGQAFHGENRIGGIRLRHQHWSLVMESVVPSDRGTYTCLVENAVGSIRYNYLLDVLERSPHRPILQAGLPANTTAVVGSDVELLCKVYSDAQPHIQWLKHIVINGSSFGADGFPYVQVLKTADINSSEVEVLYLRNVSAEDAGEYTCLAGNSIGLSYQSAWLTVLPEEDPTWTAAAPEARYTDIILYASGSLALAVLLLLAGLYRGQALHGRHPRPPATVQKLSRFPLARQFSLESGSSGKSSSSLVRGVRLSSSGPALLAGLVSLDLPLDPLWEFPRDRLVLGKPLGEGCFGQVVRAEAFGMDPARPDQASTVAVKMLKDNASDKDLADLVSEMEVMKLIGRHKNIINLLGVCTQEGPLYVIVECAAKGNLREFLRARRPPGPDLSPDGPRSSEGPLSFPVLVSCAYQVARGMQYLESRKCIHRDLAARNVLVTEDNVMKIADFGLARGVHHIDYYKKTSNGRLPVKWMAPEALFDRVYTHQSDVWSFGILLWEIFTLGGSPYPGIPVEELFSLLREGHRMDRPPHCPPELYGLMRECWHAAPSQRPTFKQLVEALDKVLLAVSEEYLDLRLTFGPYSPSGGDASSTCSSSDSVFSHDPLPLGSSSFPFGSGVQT
Chain of FGFR1 (P11362 22-822): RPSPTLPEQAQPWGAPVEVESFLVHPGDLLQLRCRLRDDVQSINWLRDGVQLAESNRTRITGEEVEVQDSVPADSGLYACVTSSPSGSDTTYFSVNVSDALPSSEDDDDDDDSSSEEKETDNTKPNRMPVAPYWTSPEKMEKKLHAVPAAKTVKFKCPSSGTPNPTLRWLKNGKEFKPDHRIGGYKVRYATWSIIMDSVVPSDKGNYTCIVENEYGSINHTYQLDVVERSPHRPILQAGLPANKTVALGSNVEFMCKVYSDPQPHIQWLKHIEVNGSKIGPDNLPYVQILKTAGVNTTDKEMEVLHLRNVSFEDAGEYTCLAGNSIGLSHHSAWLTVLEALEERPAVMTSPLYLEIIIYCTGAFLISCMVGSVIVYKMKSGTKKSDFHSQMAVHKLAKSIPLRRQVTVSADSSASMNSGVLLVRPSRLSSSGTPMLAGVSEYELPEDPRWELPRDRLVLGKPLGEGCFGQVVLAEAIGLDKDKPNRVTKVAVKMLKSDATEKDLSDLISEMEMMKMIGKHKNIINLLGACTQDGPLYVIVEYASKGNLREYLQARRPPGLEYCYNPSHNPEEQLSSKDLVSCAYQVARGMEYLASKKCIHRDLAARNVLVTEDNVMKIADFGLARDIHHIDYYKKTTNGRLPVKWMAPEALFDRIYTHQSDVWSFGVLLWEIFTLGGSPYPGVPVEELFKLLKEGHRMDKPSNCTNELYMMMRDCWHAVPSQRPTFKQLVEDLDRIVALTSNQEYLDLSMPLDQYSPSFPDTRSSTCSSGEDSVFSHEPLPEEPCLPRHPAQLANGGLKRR

With `C=CC(=O)N[C@H]1CCOC[C@H]1Nc1ncc2cc(-c3c(Cl)c(OC)cc(OC)c3Cl)ccc2n1` [BLU554, reference compound], the results for the IC50 (on FGFR1; in data set [1]; on tyrosine kinase FGFR4) were 1480 nM, 62.7 nM and 13 nM, respectively.

Regarding `C=CC(=O)Nc1cc(N2CCC(N3CCOCC3)CC2)ccc1Nc1ncc2c(n1)-c1cccnc1N(c1c(Cl)c(OC)cc(OC)c1Cl)C2` [Compound 1, N-(2-((6-(2,6-dichloro-3,5-dimethoxyphenyl)-5,6-dihydropyrimido[5,4-c][1,8]naphthyridin-2-yl)amino)-5-(4-morpholinopiperidin-1-yl)phenyl)acrylamide], the IC50 in data set [1] came to 6.9 nM; at tyrosine kinase FGFR4, 9.4 nM.

On to `C=CC(=O)N[C@H]1CCOC[C@H]1Nc1ncc2c(n1)-c1cccnc1N(c1c(Cl)c(OC)cc(OC)c1Cl)C2` [Compound 2, N-((3S,4S)-3-((6-(2,6-dichloro-3,5-dimethoxyphenyl)-5,6-dihydropyrimido[5,4-c][1,8]naphthyridin-2-yl)amino)tetrahydro-2H-pyran-4-yl)acrylamide], for which the IC50 at FGFR1 is 912 nM; at tyrosine kinase FGFR4 it was 10 nM.

Turning to `C=CC(=O)N[C@H]1CCOC[C@H]1Nc1ncc2c(=O)n(-c3c(Cl)c(OC)cc(OC)c3Cl)c3ncccc3c2n1` [Compound 3, N-((3S,4S)-3-((6-(2,6-dichloro-3,5-dimethoxyphenyl)-5-oxo-5,6-dihydropyrimido[5,4-c][1,8]naphthyridin-2-yl)amino)tetrahydro-2H-pyran-4-yl)acrylamide], the IC50 in data set [1] was over 3000 nM.

Consider `C=CC(=O)N[C@H]1CCOC[C@H]1Nc1ncc2c(n1)-c1cc(F)cnc1N(c1c(Cl)c(OC)cc(OC)c1Cl)C2` [Compound 11, N-((3S,4S)-3-((6-(2,6-dichloro-3,5-dimethoxyphenyl)-9-fluoro-5,6-dihydropyrimido[5,4-c][1,8]naphthyridin-2-yl)amino)tetrahydro-2H-pyran-4-yl)acrylamide], for which the IC50 on FGFR1 was 1530 nM; in data set [1] it was 10.6 nM; on tyrosine kinase FGFR4, 1.8 nM.

Take `C=CC(=O)N[C@H]1CCOC[C@H]1Nc1ncc2c(n1)-c1cc(C)cnc1N(c1c(Cl)c(OC)cc(OC)c1Cl)C2` [Compound 13, N-((3S,4S)-3-((6-(2,6-dichloro-3,5-dimethoxyphenyl)-9-methyl-5,6-dihydropyrimido[5,4-c][1,8]naphthyridin-2-yl)amino)tetrahydro-2H-pyran-4-yl)acrylamide]: the IC50 turned out to be 367 nM on FGFR1, 5.1 nM in data set [1] and 1 nM at tyrosine kinase FGFR4. Also, the “inhibitory rate on tumor volume growth of Hep3B (TGI)” value in data set [2] (50 mg/kg) came to 73.02%; in data set [2] (100 mg/kg), 86.26%; in data set [2] (200 mg/kg), 90.26%. The “inhibitory rate of tumor weight growth (TGI)” value in data set [2] (50 mg/kg) was determined as 84.76%; in data set [2] (100 mg/kg), 92.27%; in data set [2] (200 mg/kg) it was 98.15%. The “body weight (routine determination of toxicity)” value in data set [2] is reported as “did not show obvious weight losses”.

With `C=CC(=O)N[C@H]1CCOC[C@H]1Nc1ncc2c(n1)-c1cc(C)cnc1N(c1cc(OC)cc(OC)c1Cl)C2` [Compound 14, N-((3S,4S)-3-((6-(2-chloro-3,5-dimethoxyphenyl)-9-methyl-5,6-dihydropyrimido[5,4-c][1,8]naphthyridin-2-yl)amino)tetrahydro-2H-pyran-4-yl)acrylamide], the IC50 was found to be 1440 nM on FGFR1, 18.7 nM in data set [1] and 2.6 nM on tyrosine kinase FGFR4.

Turning to `C=CC(=O)N[C@H]1CCOC[C@H]1Nc1ncc2c(n1)-c1ccc(C)nc1N(c1c(Cl)c(OC)cc(OC)c1Cl)C2` [Compound 15, N-((3S,4S)-3-((6-(2,6-dichloro-3,5-dimethoxyphenyl)-8-methyl-5,6-dihydropyrimido[5,4-c][1,8]naphthyridin-2-yl)amino)tetrahydro-2H-pyran-4-yl)acrylamide], the IC50 on FGFR1 was determined as 1000 nM; at tyrosine kinase FGFR4, 5.2 nM.

Take `C=CC(=O)N[C@H]1CCOC[C@H]1Nc1ncc2c(n1)-c1cc(C(F)(F)F)cnc1N(c1c(Cl)c(OC)cc(OC)c1Cl)C2` [Compound 16, N-((3S,4S)-3-((6-(2,6-dichloro-3,5-dimethoxyphenyl)-9-(trifluoromethyl)-5,6-dihydropyrimido[5,4-c][1,8]naphthyridin-2-yl)amino)tetrahydro-2H-pyran-4-yl)acrylamide]: the IC50 turned out to be 166 nM on FGFR1, 14.5 nM in data set [1] and 3.6 nM on tyrosine kinase FGFR4. Besides, the “inhibitory rate on tumor volume growth of Hep3B (TGI)” value in data set [2] (50 mg/kg) was 78.37%. Besides, in data set [2] (50 mg/kg), the “inhibitory rate of tumor weight growth (TGI)” value worked out at 83.85%. The “body weight (routine determination of toxicity)” value in data set [2] is “did not show obvious weight losses”.

Regarding `C=CC(=O)N[C@H]1CCOC[C@H]1Nc1ncc2c(n1)-c1cc(Cl)cnc1N(c1c(Cl)c(OC)cc(OC)c1Cl)C2` [Compound 28, N-((3S,4S)-3-((9-chloro-6-(2,6-dichloro-3,5-dimethoxyphenyl)-5,6-dihydropyrimido[5,4-c][1,8]naphthyridin-2-yl)amino)tetrahydro-2H-pyran-4-yl)acrylamide], the IC50 stood at 741 nM at FGFR1, 9.9 nM in data set [1] and 1.8 nM at tyrosine kinase FGFR4.

Regarding `C=CC(=O)N[C@H]1CCOC[C@H]1Nc1ncc2cc(-c3c(Cl)c(OC)cc(OC)c3Cl)c3nncn3c2n1` [Compound 33, N-((3S,4S)-3-((6-(2,6-dichloro-3,5-dimethoxyphenyl)-[1,2,4]triazolo[4′,3′:1,6]pyrido[2,3-d]pyrimidin-2-yl)amino)tetrahydro-2H-pyran-4-yl)acrylamide], in data set [1], the IC50 was 524 nM.

`C=CC(=O)NC1CCOCC1Nc1ncc2c(=O)n(-c3c(Cl)c(OC)cc(OC)c3Cl)c3ncc(Cl)cc3c2n1` (stereo not shown) [Compound 34, N-(3-((9-chloro-6-(2,6-dichloro-3,5-dimethoxyphenyl)-5-oxo-5,6-dihydropyrimido[5,4-c][1,8]naphthyridin-2-yl)amino)tetrahydro-2H-pyran-4-yl)acrylamide]: the IC50 in data set [1] worked out at 1030 nM.

As a reminder, the IC50 is the concentration that gives 50% inhibition.
